The subject of data set [1] is clathrin-mediated endocytosis. The data set is described as follows: Microscopy of AA3H entry with inhibition of clathrin-mediated endocytosis. Type of data set: cell-based. The note with it: Pitstop2 40 μM.
The next data set concerns BBB cells. Put plainly: UPLC-MS of PepTGN and analogs after incubation with BBB cells. The class given is cell-based. The note with it: UPLC-MS (Figure 6C).
The test system of a further data set is bEND.3 cell line. The data set is described as follows: μMap profiling of PepTGN intracellular interactors. Type of data set: cell-based, mouse. The note with it: 37 °C, 1 h incubation.
The format of data set [2] is cell-based. The following applies: after 30 minutes incubation; overlaying with ER-marker (ERp57/ERp60 antibody).
The next data set has as its target CALCRL (Homo sapiens, UniProt O60894+Q16602). The data set is described as follows: Flow cytometry of FITC-labeled PepTGN internalization with blocking agents. The following applies: compared to non-binding isotype control. Type of data set: cell-based. (In general: Flow cytometry measures light scatter and fluorescence of single cells or particles in a stream.)

The values that follow come from PMC11761369 (bioRxiv, 2025).

Chain of CALCRL (Q16602 23-461): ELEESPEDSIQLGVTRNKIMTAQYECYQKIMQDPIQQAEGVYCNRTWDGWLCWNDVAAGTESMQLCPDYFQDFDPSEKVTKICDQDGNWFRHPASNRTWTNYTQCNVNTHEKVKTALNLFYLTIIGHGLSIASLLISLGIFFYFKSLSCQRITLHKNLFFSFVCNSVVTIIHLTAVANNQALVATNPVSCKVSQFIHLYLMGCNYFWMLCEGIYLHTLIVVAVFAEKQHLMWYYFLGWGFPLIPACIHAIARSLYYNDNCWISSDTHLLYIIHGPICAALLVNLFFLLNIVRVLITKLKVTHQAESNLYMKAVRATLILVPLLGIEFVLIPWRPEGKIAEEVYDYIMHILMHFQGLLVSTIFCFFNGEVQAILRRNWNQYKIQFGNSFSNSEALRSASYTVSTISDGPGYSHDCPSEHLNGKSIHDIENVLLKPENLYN
Chain of CALCRL (O60894 27-148): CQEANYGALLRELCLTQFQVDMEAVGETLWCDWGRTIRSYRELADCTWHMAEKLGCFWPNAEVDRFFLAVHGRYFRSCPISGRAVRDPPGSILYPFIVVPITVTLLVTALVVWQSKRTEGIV

Regarding `O=C1NC(=NS(=O)(=O)c2cccc3ccccc23)S/C1=C\c1ccc(Br)cc1` [Pitstop2], the “effect on AA3H internalization” value in data set [1] is “disrupted”. As to AGNYKALHPHNG [T12A analog], in the data set on BBB cells, the “+322 mass shift after incubation with BBB cells” value is “did not display”. TGNYKALHPHNG [PepTGN]: the “interactor genes associated to ER and Golgi trafficking and secretory pathways” value in the data set on bEND.3 cell line is recorded as “about 30%”. For the same molecule, in data set [2], the cellular localization entry was “distinct puncta”.

B1: Erenumab: monoclonal antibody used in migraine therapy that targets CALCRL and inhibits CGRP binding (antibody, chains of the INN, looked up, V domains shown)
VH: QVQLVESGGGVVQPGRSLRLSCAASGFTFSSFGMHWVRQAPGKGLEWVAVISFDGSIKYSVDSVKGRFTISRDNSKNTLFLQMNSLRAEDTAVYYCARDRLNYYDSSGYYHYKYYGMAVWGQGTTVTVSS
VL: QSVLTQPPSVSAAPGQKVTISCSGSSSNIGNNYVSWYQQLPGTAPKLLIYDNNKRPSGIPDRFSGSKSGTSTTLGITGLQTGDEADYYCGTWDSRLSAVVFGGGTKLTVL
Turning to B1, the “effect of pre-incubation on PepTGN internalization” value with CALCRL is recorded as “significantly decreased”.
